Data set [1] relates to Green Peach Aphid (Myzus persicae). The data set is described as follows: Insecticidal test for green peach aphid in foliar spray assay on cabbage. Type of data set: in vivo. The following applies: 72 h, read-out: Rating against green peach aphid on cabbage (foliar spray). As to the method: Compounds 1-67 were tested against green peach aphid using procedures described hereinafter.
Insecticidal Test for Green Peach Aphid (Myzus persicae) in Foliar Spray Assay
Cabbage seedlings grown in 3-inch pots, with 2-3 small (3-5 cm) true leaves, were used as test substrate. The seedlings were infested with 20-50 green peach aphids (wingless adult and nymph) 1-2 d prior to chemical application. Four seedlings were used for each treatment. Compounds (2 mg) were dissolved in 2 mL of acetone-methanol (1:1) solvent, forming stock solutions of 1000 ppm. The stock solutions were diluted 5× with 0.025% Tween 20 in H2O to obtain a solution at 200 ppm. A hand-held Devilbiss aspirator sprayer was used for spraying a solution to both sides of cabbage leaves until runoff. Reference plants (solvent check) were sprayed with the diluent only. Treated plants were held in a holding room for 3 d at approximately 23° C. and 40% RH prior to grading. Evaluation was conducted by counting the number of live aphids per plant under a microscope. Insecticidal activity was measured by using Abbott's correction formula: Corrected % Control=100*(X−Y)/X • where X=No. of live aphids on solvent check plants • Y=No. of live aphids on treated plants

The mark [2] stands for this setting: 200 ppm foliar spray on cabbage seedlings, graded after 3 d, corrected % control (Abbott).

Structures are written as SMILES. Where two headings read alike, the source gives them in different places.

A word on the melting point: it is the temperature of the solid-liquid transition. In the case of `CS(=O)(=NC(=O)Nc1ccc(C(F)(F)F)cc1)c1ccc(Cl)cc1` (stereo not shown) [Compound 1, N-[(4-chlorophenyl)(methyl)oxido-λ^4-sulfanylidene]-N′-[4-(trifluoromethyl)phenyl]urea], the melting point fell in the range of 131 to 134 °C. As for `COc1ccc(NC(=S)N=S(C)(=O)C(C)c2ccc(C(F)(F)F)nc2)cc1` (stereo not shown) [Compound 5], the melting point is 167 to 169 °C. In data set [1] (setting [2]), the pest or weed control at 200 ppm was less than 80%. The compound `CC(c1ccc(C(F)(F)F)nc1)S(C)(=O)=NC(=S)NC1CCCCC1` (stereo not shown) [Compound 7] returned a melting point of 170 to 172 °C. For the same compound, the pest or weed control at 200 ppm in data set [1] (setting [2]) lay in the range of 80 to 100%. Take `CC(c1ccc(C(F)(F)F)nc1)S(C)(=O)=NC(=S)NC(=O)OCC1c2ccccc2-c2ccccc21` (stereo not shown) [Compound 9]: the melting point was 105 to 107 °C. In addition, the pest or weed control at 200 ppm in data set [1] (foliar) fell in the range of 80 to 100%. For `CC(C)NC(=S)N=S(C)(=O)C(C)c1ccc(C(F)(F)F)nc1` (stereo not shown) [Compound 14], the melting point lay within 153 to 155 °C. For the same compound, the pest or weed control at 200 ppm in data set [1] (setting [2]) was in the range of 80 to 100%. For `CC(c1ccc(C(F)(F)F)nc1)S(C)(=O)=NC(=S)NC1CC1` (stereo not shown) [Compound 15] the same measures were 154 to 156 °C and 80 to 100%. For `CC(c1ccc(C(F)(F)F)nc1)S(C)(=O)=NC(=S)Nc1ccc(Cl)cc1` (stereo not shown) [Compound 20] the same measures were 181 to 183 °C and less than 80%. `CC(c1ccc(C(F)(F)F)nc1)S(C)(=O)=NC(=S)Nc1ccc(OC(F)(F)F)cc1` (stereo not shown) [Compound 21] displayed a melting point of 149 to 151 °C. Moreover, the pest or weed control at 200 ppm in data set [1] (setting [2]) was less than 80%. Take `CC(c1ccc(C(F)(F)F)nc1)S(C)(=O)=NC(N)=S` (stereo not shown) [Compound 22, N-(methyl(oxido){1-[6-(trifluoromethyl)pyridin-3-yl]ethyl}-λ^4-sulfanylidene)thiourea]: the melting point lay within 145 to 147 °C. For the same compound, the pest or weed control at 200 ppm in data set [1] (setting [2]) was in the range of 80 to 100%. In turn, `CS(=O)(Cc1ccc(C(F)(F)F)nc1)=NC(=S)NC(=O)OCC1c2ccccc2-c2ccccc21` (stereo not shown) [Compound 28, 9H-Fluoren-9-ylmethyl[(methyl(oxido){[6-(trifluoromethyl)pyridin-3-yl]methyl}-λ^4-sulfanylidene)amino]carbonothioylcarbamate] yielded a melting point of 92 to 97 °C. Also, in data set [1] (foliar), the pest or weed control at 200 ppm is less than 80%. The like results for `CS(=O)(Cc1ccc(Cl)nc1)=NC(=S)NC(=O)OCC1c2ccccc2-c2ccccc21` (stereo not shown) [Compound 30, 9H-Fluoren-9-ylmethyl{[[(6-chloropyridin-3-yl)methyl](methyl)oxido-λ^4-sulfanylidene]amino}carbonothioylcarbamate] were, in that order, 98 to 101 °C and less than 80%.

Compound `CS(=O)(Cc1ccc(Cl)nc1)=NC(N)=S` (stereo not shown) [Compound 31, N-[[(6-chloropyridin-3-yl)methyl](methyl)oxido-λ^4-sulfanylidene]thiourea] came in with a melting point of 155 to 158 °C. In addition, in data set [1] (setting [2]), the pest or weed control at 200 ppm lay in the range of 80 to 100%.

The compound `Cc1ccc(C(C)S(C)(=O)=NC(N)=S)cn1` (stereo not shown) [Compound 33, N-{methyl[1-(6-methylpyridin-3-yl)ethyl]oxido-λ^4-sulfanylidene}-thiourea] showed a melting point of 137 to 140 °C. Also, the pest or weed control at 200 ppm in data set [1] (setting [2]) was 80 to 100%. `CC(c1ccc(C(F)(F)F)cc1)S(C)(=O)=NC(=S)NC(=O)OCC1c2ccccc2-c2ccccc21` (stereo not shown) [Compound 34, 9H-Fluoren-9-ylmethyl[(methyl(oxido){1-[4-(trifluoromethyl)phenyl]-ethyl}-λ^4-sulfanylidene)amino]carbonothioylcarbamate] displayed a melting point of 86 to 93 °C. The pest or weed control at 200 ppm in data set [1] (foliar) was less than 80%. `CC(c1ccc(C(F)(F)F)cc1)S(C)(=O)=NC(N)=S` (stereo not shown) [Compound 35, N-(methyl(oxido){1-[4-(trifluoromethyl)phenyl]ethyl}-λ^4-sulfanylidene)thiourea] had a melting point of 166 to 168 °C. In data set [1] (setting [2]), the pest or weed control at 200 ppm was less than 80%.

The compound `NC(=S)N=S1(=O)CCCC1c1ccc(Cl)nc1` (stereo not shown) [Compound 36, N-[2-(6-chloropyridin-3-yl)-1-oxidotetrahydro-1H-1λ^4-thien-1-ylidene]thiourea] came in with a melting point of 168 to 172 °C. The pest or weed control at 200 ppm in data set [1] (setting [2]) was in the range of 80 to 100%. Consider `COC(=O)CCC(=O)NC(=S)N=S(C)(=O)C(C)c1ccc(C(F)(F)F)nc1` (stereo not shown) [Compound 37, methyl 4-({[(methyl(oxido){1-[6-(trifluoromethyl)pyridin-3-yl]ethyl}-λ^4-sulfanylidene)amino]carbonothioyl}amino)-4-oxobutanoate], for which the melting point lay within 131 to 133 °C. Further, the pest or weed control at 200 ppm in data set [1] (setting [2]) fell in the range of 80 to 100%. Compound `CC(c1ccc(C(F)(F)F)nc1)S(C)(=O)=N/C(N)=N/O` (stereo not shown) [Compound 38, N″-hydroxy-N-(methyl(oxido){1-[6-(trifluoromethyl)pyridin-3-yl]ethyl}-λ^4-sulfanylidene)guanidine] returned a melting point of 157 to 159 °C. Further, the pest or weed control at 200 ppm in data set [1] (setting [2]) lay within 80 to 100%.

Compound `CS(=O)(Cc1ccc(Cl)nc1)=N/C(N)=N/O` (stereo not shown) [Compound 39, N-[[(6-chloropyridin-3-yl)methyl](methyl)oxido-λ^4-sulfanylidene]-N″-hydroxyguanidine] displayed a melting point of 156 to 158 °C. Further, the pest or weed control at 200 ppm in data set [1] (setting [2]) lay within 80 to 100%. Regarding `COCCO/N=C(\N)N=S(C)(=O)C(C)c1ccc(C(F)(F)F)nc1` (stereo not shown) [Compound 60], the pest or weed control at 200 ppm in data set [1] (setting [2]) fell in the range of 80 to 100%.

On to `CC(c1ccc(C(F)(F)F)nc1)S(C)(=O)=N/C(N)=N/OCC1CO1` (stereo not shown) [Compound 61], for which the pest or weed control at 200 ppm in data set [1] (setting [2]) lay within 80 to 100%.

As for `CN/C(N=S(C)(=O)C(C)c1ccc(C(F)(F)F)nc1)=N\OC` (stereo not shown) [Compound 63, N″-methoxy-N-methyl-N′-(methyl(oxido){1-[6-(trifluoromethyl)pyridin-3-yl]ethyl}-λ^4-sulfanylidene)guanidine], the pest or weed control at 200 ppm in data set [1] (setting [2]) lay in the range of 80 to 100%. Same read-out and setting: in the case of `CC(C)O/N=C(\N)N=S(C)(=O)C(C/C=C/Cl)c1ccc(Cl)nc1` (stereo not shown) [Compound 64, N-[[(3E)-4-Chloro-1-(6-chloropyridin-3-yl)but-3-enyl](methyl)oxido-λ^4-sulfanylidene]-N″-isopropoxyguanidine] it was less than 80%; in that of `CC(c1ccc(C(F)(F)F)nc1)S(C)(=O)=NC(=O)C(F)F` (stereo not shown) [Compound 66, 2,2-difluoro-N-(methyl(oxido){1-[6-(trifluoromethyl)pyridin-3-yl]ethyl}-λ^4-sulfanylidene)acetamide], 80 to 100%.

Consider `CC(c1ccc(C(F)(F)F)nc1)S(C)(=O)=NC(=O)C(C)(C)C` (stereo not shown) [Compound 67, 2,2-dimethyl-N-(methyl(oxido){1-[6-(trifluoromethyl)pyridin-3-yl]ethyl}-λ^4-sulfanylidene)propanamide], for which, in data set [1] (setting [2]), the pest or weed control at 200 ppm was less than 80%.

The values are drawn from patent publication US8445689B2, “Pesticides” (Dow AgroSciences, LLC., priority 2008, dated 2013).
